Assay results reported in patent publication US10988477B2 (Merck Patent GmbH, priority 2018, dated 2021).
Where two headings read alike, the source gives them in different places.

Columns and labels:
GCN2 kinase = GCN2 kinase (Homo sapiens, UniProt Q9P2K8); assay: GCN2 enzyme inhibition assay (Transcreener ADP2 fluorescence polarization); assay type: biochemical; conditions: 280 μM ATP
Summary of the method: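 Kinase activity is followed as ADP formation, measured by fluorescence polarization, using 4 nM enzyme with 280 μM ATP and 200 μM (RS)7 peptide at pH 7.5 and 25 °C for 1 h. Values come from a non-linear tight-binding fit.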

[1] = target: intracellular GCN2 (phosphorylation of the GCN2 substrate eIF2α) (Homo sapiens, UniProt Q9P2K8); assay: GCN2 cellular inhibition assay (AlphaScreen SureFire P-eIF2α Ser51, borrelidin-treated U2OS cells); assay type: cell-based
Chain of intracellular GCN2 (phosphorylation of the GCN2 substrate eIF2α) (Q9P2K8 whole entry): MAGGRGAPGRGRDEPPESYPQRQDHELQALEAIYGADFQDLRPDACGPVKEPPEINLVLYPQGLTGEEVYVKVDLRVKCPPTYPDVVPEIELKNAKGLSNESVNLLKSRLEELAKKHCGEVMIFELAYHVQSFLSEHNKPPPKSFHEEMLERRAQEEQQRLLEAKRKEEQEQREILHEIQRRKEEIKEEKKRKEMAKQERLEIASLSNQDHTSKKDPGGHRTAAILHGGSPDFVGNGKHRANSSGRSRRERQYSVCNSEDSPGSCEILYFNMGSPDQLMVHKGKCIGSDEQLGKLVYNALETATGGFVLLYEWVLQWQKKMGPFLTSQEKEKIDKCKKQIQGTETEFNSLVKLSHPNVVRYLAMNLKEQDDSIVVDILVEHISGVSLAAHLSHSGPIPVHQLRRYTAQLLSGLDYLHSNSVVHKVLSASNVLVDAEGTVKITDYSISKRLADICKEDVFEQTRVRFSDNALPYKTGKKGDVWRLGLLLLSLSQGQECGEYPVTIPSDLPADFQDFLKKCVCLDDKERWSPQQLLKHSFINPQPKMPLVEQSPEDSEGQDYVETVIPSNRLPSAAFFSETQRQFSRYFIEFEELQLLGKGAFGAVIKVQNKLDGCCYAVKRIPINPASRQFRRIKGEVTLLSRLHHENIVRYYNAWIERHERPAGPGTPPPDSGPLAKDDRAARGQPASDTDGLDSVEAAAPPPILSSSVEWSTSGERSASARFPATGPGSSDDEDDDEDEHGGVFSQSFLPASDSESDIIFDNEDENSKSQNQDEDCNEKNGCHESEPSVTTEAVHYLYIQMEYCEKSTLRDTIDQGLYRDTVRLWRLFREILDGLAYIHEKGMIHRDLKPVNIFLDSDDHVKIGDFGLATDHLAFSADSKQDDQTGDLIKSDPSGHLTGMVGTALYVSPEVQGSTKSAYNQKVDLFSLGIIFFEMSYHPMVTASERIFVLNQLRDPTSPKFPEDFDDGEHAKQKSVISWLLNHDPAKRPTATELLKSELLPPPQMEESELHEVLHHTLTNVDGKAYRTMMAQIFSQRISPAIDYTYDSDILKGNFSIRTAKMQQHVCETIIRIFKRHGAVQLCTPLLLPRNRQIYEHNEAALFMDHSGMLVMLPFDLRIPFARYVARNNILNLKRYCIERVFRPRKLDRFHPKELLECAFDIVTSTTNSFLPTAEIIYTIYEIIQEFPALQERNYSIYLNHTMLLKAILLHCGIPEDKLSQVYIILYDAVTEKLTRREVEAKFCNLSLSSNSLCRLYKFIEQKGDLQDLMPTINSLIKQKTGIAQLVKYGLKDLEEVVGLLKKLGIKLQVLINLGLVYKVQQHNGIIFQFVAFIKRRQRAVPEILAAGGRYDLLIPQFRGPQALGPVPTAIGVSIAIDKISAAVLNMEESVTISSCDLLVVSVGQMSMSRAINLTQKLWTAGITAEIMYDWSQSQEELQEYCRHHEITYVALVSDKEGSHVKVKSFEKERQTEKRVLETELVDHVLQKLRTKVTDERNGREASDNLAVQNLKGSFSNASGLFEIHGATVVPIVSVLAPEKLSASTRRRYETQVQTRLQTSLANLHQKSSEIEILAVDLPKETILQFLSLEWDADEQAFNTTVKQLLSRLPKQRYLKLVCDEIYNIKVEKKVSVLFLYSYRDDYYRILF
Method: Compounds can be screened for their ability to inhibit intracellular GCN2 using an AlphaScreen assay (Perkin Elmer) to detect phosphorylation of the GCN2 substrate eIF2α in borrelidin-treated cells. U2OS cells are plated at 5,000 cells per well in 384-well white polystyrene plates (Corning 3570) in McCoy's 5 A media (GIBCO 26600-023) supplemented with 10% foetal bovine serum (SAFC 12103C), Penicillin/Streptomycin solution diluted 1:100 (Sigma P0781), and 2 mM L-glutamine (Sigma G7513), and allowed to adhere overnight at 37° C. in 5% CO2. Compounds are then added to the cell media from a final concentration of 40 μM in 4-fold serial dilutions. Borrelidin (FluoroChem M01440) is immediately added to the wells to a final concentration of 10 μM and the cells are incubated for 1 h at 37° C. in 5% CO2. After 1 h of treatment with borrelidin, the media is removed, and the cells are lysed with lysis buffer (TGR BioSciences TGRLB) at ambient temperature.
An AlphaScreen SureFire P-eIF2α (Ser51) assay kit (Perkin Elmer TGREIF2S) was used to measure levels of eIF2α phosphorylated on Serine 51. Anti-phosphorylated eIF2α Ser51 antibody-linked acceptor beads (TGR BioScience 6760617) are added to the cell homogenate (diluted 1:250 into a mixture of activation (TGR BioScience TGRAB) and reaction buffer (TGR BioScience TGREIF2S) prepared immediately before use). The plate is then incubated for 2 h at ambient temperature in the dark. Anti-eIF2α antibody-linked donor beads (TGR BioScience 6760617) were then added (diluted 1:100 in dilution buffer (TGR BioScience TGRDB) prepared immediately before use). The plate is then incubated overnight at ambient temperature in the dark.
Plates are analyzed on an Alpha Technology-compatible PHERAstar FS plate reader (BMG Labtech Version 1.14) to quantify phosphorylated eIF2α Ser51 levels. The percentage inhibition of phosphorylated eIF2α is calculated by comparison to control wells stimulated with borrelidin alone.

[2] = Enzyme activity for compounds of Formula IV, Ki(app), 25° C.
[3] = compounds of Formula IV, biomarker assay, phosphorylated eIF2α Ser51 in borrelidin-treated U2OS cells
[4] = compounds of Formula V, 4 nM GCN2 kinase
[5] = compounds of Formula V, U2OS cells, 10 μM borrelidin, 1 h, read-out: GCN2 Biomarker (IC50)
[6] = compounds of Formula II, 4 nM GCN2 kinase
[7] = compounds of Formula II, biomarker assay, phosphorylated eIF2α Ser51 in borrelidin-treated U2OS cells

Chain of GCN2 kinase (Q9P2K8 whole entry): as above

SMILES	Ki (GCN2 kinase; [2])	IC50 [1, 3]	Ki (GCN2 kinase; [6])	IC50 [1, 7]	further results
C[C@H]1[C@@H](c2cn[nH]c2)OCCN1c1ccnc(-c2cnc3cnc(C(F)(F)F)cn23)n1 (racemic) [IV-215, Cis-3-Methyl-2-(1H-pyrazol-4-yl)-4-(2-(6-(trifluoromethyl)imidazo[1,2-a]pyrazin-3-yl)pyrimidin-4-yl)morpholine]	10 to 100 nM	< 500 nM	–	–	–
C[C@@H]1[C@H](c2cn[nH]c2)OCCN1c1ccnc(-c2cnc3cnc(C#N)cn23)n1 (racemic) [IV-280, Cis-3-(4-(3-Methyl-2-(1H-pyrazol-4-yl)morpholino)pyrimidin-2-yl)imidazo[1,2-a]pyrazine-6-carbonitrile]	< 10 nM	< 500 nM	–	–	–
C[C@H]1[C@@H](c2cn[nH]c2)NCCN1c1ccnc(-c2cnc3cnc(Br)cn23)n1 (racemic) [IV-343, Cis-6-Bromo-3-(4-(2-methyl-3-(1H-pyrazol-4-yl)piperazin-1-yl)pyrimidin-2-yl)imidazo[1,2-a]pyrazine]	< 10 nM	< 500 nM	–	–	–
C[C@@H]1CN(c2ccnc(-c3cnc4cnc(Br)cn34)n2)C[C@H](c2cn[nH]c2)N1 (racemic) [IV-344, Cis-6-Bromo-3-(4-(3-methyl-5-(1H-pyrazol-4-yl)piperazin-1-yl)pyrimidin-2-yl)imidazo[1,2-a]pyrazine]	10 to 100 nM	500 to 5000 nM	–	–	–
C[C@H]1CN(c2ccnc(-c3cnc4cnc(C(F)(F)F)cn34)n2)C[C@@H](c2c[nH]cn2)N1 (racemic) [IV-379, Cis-3-(4-(3-(1H-Imidazol-4-yl)-5-methylpiperazin-1-yl)pyrimidin-2-yl)-6-(trifluoromethyl)imidazo[1,2-a]pyrazine]	< 10 nM	500 to 5000 nM	–	–	–
CS(C)(=O)=N[C@@H]1C[C@@H](c2cn[nH]c2)CN(c2ccnc(-c3cnc4cnc(C(F)(F)F)cn34)n2)C1 (racemic) [IV-394]	100 to 1000 nM	> 5000 nM	–	–	–
C[C@H]1[C@@H](c2cn[nH]c2)NCCN1c1ccnc(-c2cnc3cnc(C4CC4)cn23)n1 (racemic) [IV-411, Cis-6-Cyclopropyl-3-(4-(2-methyl-3-(1H-pyrazol-4-yl)piperazin-1-yl)pyrimidin-2-yl)imidazo[1,2-a]pyrazine]	10 to 100 nM	500 to 5000 nM	–	–	–
C[C@H]1[C@@H](c2cn[nH]c2)CCCN1c1ccnc(-c2cnc3cnc(Br)cn23)n1 (relative stereo) [IV-387, Cis-6-Bromo-3-(4-(2-methyl-3-(1H-pyrazol-4-yl)piperidin-1-yl)pyrimidin-2-yl)imidazo[1,2-a]pyrazine]	< 10 nM	< 500 nM	–	–	–
CCN1CCN(c2ccnc(-c3cnc4cnc(Br)cn34)n2)[C@@H](c2cn[nH]c2)[C@H]1C (relative stereo) [IV-391, Cis-6-Bromo-3-(4-(4-ethyl-3-methyl-2-(1H-pyrazol-4-yl)piperazin-1-yl)pyrimidin-2-yl)imidazo[1,2-a]pyrazine]	100 to 1000 nM	500 to 5000 nM	–	–	–
C[C@H]1[C@@H](c2cn[nH]c2)N(C)CCN1c1ccnc(-c2cnc3cnc(Br)cn23)n1 (relative stereo) [IV-392, Cis-6-Bromo-3-(4-(2,4-dimethyl-3-(1H-pyrazol-4-yl)piperazin-1-yl)pyrimidin-2-yl)imidazo[1,2-a]pyrazine]	< 10 nM	< 500 nM	–	–	–
CC1CN(c2ccnc(-c3cnc4sc(C(F)(F)F)cn34)n2)C(C)C(c2cn[nH]c2)N1 (single isomer, unassigned) [Compound V-11, 5-[4-[2,5-Dimethyl-3-(1H-pyrazol-4-yl)piperazin-1-yl]pyrimidin-2-yl]-2-(trifluoromethyl)imidazo[2,1-b]thiazole]	–	–	–	–	Ki (GCN2 kinase; [4]): < 10 nM; IC50 [1, 5]: < 500 nM
CC1CN(c2ccnc(-c3cnc4sc(C(F)(F)F)cn34)n2)C(C)C(c2cn[nH]c2)N1 (single isomer, unassigned) [Compound V-12, 5-[4-[2,5-Dimethyl-3-(1H-pyrazol-4-yl)piperazin-1-yl]pyrimidin-2-yl]-2-(trifluoromethyl)imidazo[2,1-b]thiazole]	–	–	–	–	Ki (GCN2 kinase; [4]): 100 to 1000 nM; IC50 [1, 5]: 500 to 5000 nM
CS(=O)(=O)NCC1CN(c2cc(-c3cnc4ccc(C(F)F)nn34)ncn2)CCC1(F)F (single isomer, unassigned) [II-1, N-((1-(6-(6-(Difluoromethyl)imidazo[1,2-b]pyridazin-3-yl)pyrimidin-4-yl)-4,4-difluoropiperidin-3-yl)methyl)methanesulfonamide]	–	–	10 to 1000 nM	500 to 5000 nM	–
CS(=O)(=O)NCC1CN(c2cc(-c3cnc4ccc(C(F)F)nn34)ncn2)CCC1(F)F (single isomer, unassigned) [II-2, N-((1-(6-(6-(Difluoromethyl)imidazo[1,2-b]pyridazin-3-yl)pyrimidin-4-yl)-4,4-difluoropiperidin-3-yl)methyl)methanesulfonamide]	–	–	< 10 nM	500 to 5000 nM	–
CC1(O)CC(CNS(C)(=O)=O)CN(c2cc(-c3cnc4ccc(C(F)F)nn34)ncn2)C1 (single isomer, unassigned) [II-5, N-((1-(6-(6-(Difluoromethyl)imidazo[1,2-b]pyridazin-3-yl)pyrimidin-4-yl)-5-hydroxy-5-methylpiperidin-3-yl)methyl)methanesulfonamide]	–	–	10 to 1000 nM	> 5000 nM	–
CC1(O)CC(CNS(C)(=O)=O)CN(c2cc(-c3cnc4ccc(C(F)F)nn34)ncn2)C1 (single isomer, unassigned) [II-6, N-((1-(6-(6-(Difluoromethyl)imidazo[1,2-b]pyridazin-3-yl)pyrimidin-4-yl)-5-hydroxy-5-methylpiperidin-3-yl)methyl)methanesulfonamide]	–	–	10 to 1000 nM	500 to 5000 nM	–
CS(=O)(=O)NC1CCC2(CCN(c3cc(-c4cnc5ccc(C(F)F)nn45)ncn3)C2)C1 (single isomer, unassigned) [II-95, N-(2-(6-(6-(Difluoromethyl)imidazo[1,2-b]pyridazin-3-yl)pyrimidin-4-yl)-2-azaspiro[4.4]nonan-7-yl)methanesulfonamide]	–	–	10 to 1000 nM	500 to 5000 nM	–
CS(=O)(=O)NC1CCC2(CCN(c3cc(-c4cnc5ccc(C(F)F)nn45)ncn3)C2)C1 (single isomer, unassigned) [II-100, N-(2-(6-(6-(Difluoromethyl)imidazo[1,2-b]pyridazin-3-yl)pyrimidin-4-yl)-2-azaspiro[4.4]nonan-7-yl)methanesulfonamide]	–	–	10 to 1000 nM	500 to 5000 nM	–
FC(F)(F)c1ccc2ncc(-c3ccnc(N4CCOC(c5cn[nH]c5)C4)c3)n2n1 (single isomer, unassigned) [II-229, 2-(1H-Pyrazol-4-yl)-4-(4-(6-(trifluoromethyl)imidazo[1,2-b]pyridazin-3-yl)pyridin-2-yl)morpholine]	–	–	< 10 nM	< 500 nM	–
FC(F)(F)c1ccc2ncc(-c3ccnc(N4CCOC(c5cn[nH]c5)C4)c3)n2n1 (single isomer, unassigned) [II-230, 2-(1H-Pyrazol-4-yl)-4-(4-(6-(trifluoromethyl)imidazo[1,2-b]pyridazin-3-yl)pyridin-2-yl)morpholine]	–	–	< 10 nM	< 500 nM	–
COC1CC(CNS(C)(=O)=O)CN(c2cc(-c3cnc4ccc(C(F)F)nn34)ncn2)C1 (single isomer, unassigned) [II-233, N-((1-(6-(6-(Difluoromethyl)imidazo[1,2-b]pyridazin-3-yl)pyrimidin-4-yl)-5-methoxypiperidin-3-yl)methyl)methanesulfonamide]	–	–	< 10 nM	< 500 nM	–
FC(F)c1ccc2ncc(-c3cc(C4CCCN(C5COC5)C4)ncn3)n2n1 (single isomer, unassigned) [II-241, 6-(Difluoromethyl)-3-(6-(1-(oxetan-3-yl)piperidin-3-yl)pyrimidin-4-yl)imidazo[1,2-b]pyridazine]	–	–	> 1000 nM	> 5000 nM	–
FC(F)c1ccc2ncc(-c3cc(C4CCCN(C5COC5)C4)ncn3)n2n1 (single isomer, unassigned) [II-242, 6-(Difluoromethyl)-3-(6-(1-(oxetan-3-yl)piperidin-3-yl)pyrimidin-4-yl)imidazo[1,2-b]pyridazine]	–	–	10 to 1000 nM	> 5000 nM	–
